Structures are written as SMILES.

Holding throughout (type): in vivo
In series [1] the test system is Septoria nodorum. Nature of the series: Test C: preventive spray on wheat seedlings, Septoria nodorum (Septoria glume blotch), visual disease rating. The settings on record: Parastagonospora nodorum, topical, 264 h, 100 = 100% disease control, 0 = no disease control relative to controls. The source says:
General protocol for preparing test suspensions for Tests A-H: the test compounds were first dissolved in acetone in an amount equal to 3% of the final volume and then suspended at the desired concentration (in ppm) in acetone and purified water (50/50 mix by volume) containing 250 ppm of the surfactant Trem® 014 (polyhydric alcohol esters). The resulting test suspensions were then used in Tests A-F. Spraying a 40 ppm test suspension to the point of run-off on the test plants was the equivalent of a rate of 160 g/ha. Unless otherwise indicated, the rating values indicate a 40 ppm test suspension was used. The test suspension was sprayed to the point of run-off on wheat seedlings. The following day the seedlings were inoculated with a spore suspension of Septoria nodorum (the causal agent of Septoria glume blotch) and incubated in a saturated atmosphere at 20° C. for 48 h, and then moved to a growth chamber at 20° C. for 9 days, after which time visual disease ratings were made. Results for Tests A-F are given in Table A. In the Table, a rating of 100 indicates 100% disease control and a rating of 0 indicates no disease control (relative to the controls). A dash (-) indicates no test results.

The subject of series [2] is Septoria tritici. Description: Test D: preventive spray on wheat seedlings, Septoria tritici (wheat leaf blotch), visual disease rating. The settings on record: Zymoseptoria tritici, topical, 504 h, 100 = 100% disease control, 0 = no disease control relative to controls. The source says: General protocol for preparing test suspensions for Tests A-H: the test compounds were first dissolved in acetone in an amount equal to 3% of the final volume and then suspended at the desired concentration (in ppm) in acetone and purified water (50/50 mix by volume) containing 250 ppm of the surfactant Trem® 014 (polyhydric alcohol esters). The resulting test suspensions were then used in Tests A-F. Spraying a 40 ppm test suspension to the point of run-off on the test plants was the equivalent of a rate of 160 g/ha. Unless otherwise indicated, the rating values indicate a 40 ppm test suspension was used. The test suspension was sprayed to the point of run-off on wheat seedlings. The following day the seedlings were inoculated with a spore suspension of Septoria tritici (the causal agent of wheat leaf blotch) and incubated in saturated atmosphere at 24° C. for 48 h, and then moved to a growth chamber at 20° C. for 19 days, after which time visual disease ratings were made. Results for Tests A-F are given in Table A. In the Table, a rating of 100 indicates 100% disease control and a rating of 0 indicates no disease control (relative to the controls). A dash (-) indicates no test results.

For series [3], the system named is Puccinia recondita f. sp. tritici. Description: Test E2: preventive spray on wheat seedlings, Puccinia recondita f. sp. tritici (wheat leaf rust), visual disease rating. The note with it: topical, 192 h, 100 = 100% disease control, 0 = no disease control relative to controls. The source says:
General protocol for preparing test suspensions for Tests A-H: the test compounds were first dissolved in acetone in an amount equal to 3% of the final volume and then suspended at the desired concentration (in ppm) in acetone and purified water (50/50 mix by volume) containing 250 ppm of the surfactant Trem® 014 (polyhydric alcohol esters). The resulting test suspensions were then used in Tests A-F. Spraying a 40 ppm test suspension to the point of run-off on the test plants was the equivalent of a rate of 160 g/ha. Unless otherwise indicated, the rating values indicate a 40 ppm test suspension was used. The test suspension was sprayed to the point of run-off on wheat seedlings. The following day the seedlings were inoculated with a spore suspension of Puccinia recondita f. sp. tritici (the causal agent of wheat leaf rust) and incubated in a saturated atmosphere at 20° C. for 24 h, and then moved to a growth chamber at 20° C. for 7 days, after which time visual disease ratings were made. Results for Tests A-F are given in Table A. In the Table, a rating of 100 indicates 100% disease control and a rating of 0 indicates no disease control (relative to the controls). A dash (-) indicates no test results.

Series [4] relates to Alternaria solani. Description: Test B: preventive spray on tomato seedlings, Alternaria solani (tomato early blight), visual disease rating. The note with it: 100 = 100% disease control, 0 = no disease control relative to controls. The source says:
General protocol for preparing test suspensions for Tests A-H: the test compounds were first dissolved in acetone in an amount equal to 3% of the final volume and then suspended at the desired concentration (in ppm) in acetone and purified water (50/50 mix by volume) containing 250 ppm of the surfactant Trem® 014 (polyhydric alcohol esters). The resulting test suspensions were then used in Tests A-F. Spraying a 40 ppm test suspension to the point of run-off on the test plants was the equivalent of a rate of 160 g/ha. Unless otherwise indicated, the rating values indicate a 40 ppm test suspension was used. The test suspension was sprayed to the point of run-off on tomato seedlings. The following day the seedlings were inoculated with a spore suspension of Alternaria solani (the causal agent of tomato early blight) and incubated in a saturated atmosphere at 27° C. for 48 h, and then moved to a growth chamber at 24° C. for 5 days, after which time visual disease ratings were made. Results for Tests A-F are given in Table A. In the Table, a rating of 100 indicates 100% disease control and a rating of 0 indicates no disease control (relative to the controls). A dash (-) indicates no test results.

Series [5] is described as follows: Single oral dose pharmacokinetics in rats, plasma and fat analysed by LC/MS (fat:plasma ratio). The settings on record: vertebrate animals (rats), single oral gavage dose; compared to corresponding analogs. As for the experimental part:
The pharmacokinetic properties of compounds of Formula 1 can be measured using a wide variety of assay protocols known in the science of pharmacology. In one illustrative method involving a single oral dose, three male and three female rats receive a single dose of a test substance via oral gavage. Approximately 0.25 mL of blood is collected via tail vein immediately prior to dosing, and then at 0.25, 0.5, 1, 2, 4, 8, 12, 24 h and every 24 h thereafter until sacrifice. At sacrifice, fat is also collected to determine the fat:plasma ratio at sacrifice. […] After removal of the proteins, the plasma is analyzed for parent compound and/or metabolites by liquid chromatography-mass spectrometry (LC/MS). […] The extract is then analyzed for parent compound and/or metabolites by LC/MS. The plasma pharmacokinetic data is then analyzed using nonlinear modeling software (e.g., WinNonlin™ from Pharsight, Cary, N.C., U.S.A.) to determine half-life of the administered compound in plasma, the time after administration when the maximum plasma concentration is reached (Tmax), the maximum plasma concentration (Cmax) and the area under the plasma concentration curve (AUC). […] However, by using multiple rats sacrificed after different intervals from time of dosing, such parameters as Cmax for fat are determined.

Usually pest or weed control stands for how far the test organism was held down. High values mean a strong effect, low ones a weak effect. For `Cc1cc(F)c(Nc2c(-c3ccc(F)cc3Cl)c(C)nn2C)c(Br)c1` [Compound 1, N-(2-bromo-6-fluoro-4-methylphenyl)-4-(2-chloro-4-fluorophenyl)-1,3-dimethyl-1H-pyrazol-5-amine], the figures for the pest or weed control at 40 µg/mL in series [1], in series [2] and in series [3] were 90%, 100% and 100%, respectively. In addition, the “Test B rating (% disease control)” value in series [4] stood at 99. Also, the distribution into fat entry in series [5] was “significantly diminished distribution into fat”.

The record behind these values is US9464056B2, “Fungicidal 4-methylanilino pyrazoles” (E. I. DU PONT DE NEMOURS AND COMPANY, priority 2012, dated 2016).
